Literature values, collected in patent publication US6572638B1, “Method of controlling body temperature while inhibiting thermoregulatory responses” (Radiant Medical, Inc., priority 1999, dated 2003).

Tested on: shivering threshold
Details: patients at normal temperature warmed until sweating then cooled until shivering occurred; Talke, et al., Anesthesiology 87(4):835-841, 1997

In the case of `Clc1cccc(Cl)c1N=C1NCCN1` [clonidine], the “effect on shivering threshold” value is listed as “able to lower the shivering threshold”.

In the case of `Cc1cccc([C@H](C)c2cnc[nH]2)c1C` [dexmedetomidine], the “effect on shivering threshold” value is given as “able to lower the shivering threshold”.
